13 compounds from US11337964B2, “Isoindoline derivative, pharmaceutical composition and use thereof” (Kangpu Biopharmaceuticals, Ltd., priority 2017, dated 2022) can be followed below.

Where two headings read alike, the source gives them in different places.

One series concerns the target T1, PDE4A1A (Homo sapiens, UniProt P27815).
T1 construct: purchased BPS 60040
Briefly: PDE4 activity inhibition assay, PDE4A1A. The series is classed as biochemical. As to conditions: FAM-cAMP substrate, 30 minutes at room temperature. The protocol:
(§1) The IC50 value of the inhibitory effect of the compound on PDE4A1A, PDE4B1 and PDE4D3 was tested.
(§2) Positive compound: Trequinsin (Sigma, Cat. No. T2057).
(§3) Equipment: Wallac Victor Multi-label counter (Perkin Elmer).
(§4) I. Preparing 1× reaction liquid and termination liquid;
(§5) II. PDE enzymatic reaction; • 1) The PDE was dissolved in 1× reaction solution to form 2× enzyme solution. • 2) FAM-cAMP was dissolved in 1× reaction solution to form 2× substrate solution. • 3) Echo 550 was used to transfer the corresponding volume of the compound in DMSO solution to the reaction plate. • 4) 2× enzyme solution was added into the corresponding well of the reaction plate and incubated with the compound solution at room temperature for 15 minutes. • 5) 2× substrate solution was added into the corresponding well of the reaction plate to initiate the reaction. • 6) Reaction plate was incubated at room temperature for 30 minutes and terminated by adding termination liquid, then incubated at room temperature for 60 minutes.
(§6) The inhibition rate was calculated by Excel; IC50 was calculated by GraphPad Prism.

Another series addresses T2, PDE4B1 (Homo sapiens, UniProt Q07343).
T2 construct: purchased BPS 60041
The series can be described thus: PDE4 activity inhibition assay, PDE4B1. Type of series: biochemical. As to conditions: FAM-cAMP substrate, 30 minutes at room temperature. How it is done:
as §1, §2, §3, §4, §5, §6

The target of the next series is T3, PDE4D3 (Homo sapiens, UniProt Q08499).
T3 construct: purchased BPS 60046
T3 sequence (Q08499 1-673 isoform Q08499-2): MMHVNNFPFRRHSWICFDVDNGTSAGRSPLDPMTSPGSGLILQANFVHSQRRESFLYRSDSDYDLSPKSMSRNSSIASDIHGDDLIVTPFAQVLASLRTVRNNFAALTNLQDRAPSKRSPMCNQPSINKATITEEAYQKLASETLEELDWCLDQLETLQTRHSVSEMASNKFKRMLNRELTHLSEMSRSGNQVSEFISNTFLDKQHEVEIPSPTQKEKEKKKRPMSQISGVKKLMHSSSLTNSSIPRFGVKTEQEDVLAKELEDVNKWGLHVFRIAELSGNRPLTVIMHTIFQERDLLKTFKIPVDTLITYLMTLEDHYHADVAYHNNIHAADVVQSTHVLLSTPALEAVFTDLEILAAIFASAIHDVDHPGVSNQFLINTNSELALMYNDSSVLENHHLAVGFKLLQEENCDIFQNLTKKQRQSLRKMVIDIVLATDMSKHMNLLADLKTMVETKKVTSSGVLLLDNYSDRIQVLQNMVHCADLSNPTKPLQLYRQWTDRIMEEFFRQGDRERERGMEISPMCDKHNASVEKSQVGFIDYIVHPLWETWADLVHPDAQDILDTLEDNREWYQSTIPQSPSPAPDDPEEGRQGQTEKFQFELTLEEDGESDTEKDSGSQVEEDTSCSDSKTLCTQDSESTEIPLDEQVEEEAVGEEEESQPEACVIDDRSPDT
Briefly: PDE4 activity inhibition assay, PDE4D3. Type of series: biochemical. As to conditions: FAM-cAMP substrate, 30 minutes at room temperature. The protocol:
as §1, §2, §3, §4, §5, §6

A short description of series [1]: PK parameter test in SD rats. The series is classed as in vivo, Sprague-Dawley rats. Conditions: male SD rats; for Tmax / AUC / half-life: Sprague-Dawley, rat, plasma; for F: po 10 mg/kg vs iv 3 mg/kg. How it is done: Test compounds were administered intravenously or intragastrically singly to SD rats.
Blood samples were collected at different time points. LC-MS/MS was used to determine the concentration of the test compounds in rat plasma after administration of tested compounds and calculate the relevant PK parameters.
The test compounds are calculated based on free radicals and are converted only by purity.
A suitable amount of the test compound was added 5% DMSO+95% HP-beta-CD (20%) to prepare a solution of 0.6 mg/mL for intravenous administration.
A suitable amount of the test compound was added 5% DMSO+95% HP-beta-CD (20%) to prepare a solution of 1 mg/mL for intragastrical administration.
Male Sprague-Dawley rats were purchased from Shanghai Xipuer-Bikai Laboratory Animal Co., Ltd. There were 3 rats in each group. One group was used as control to collect blank plasma. The other groups were given each test compound by intravenous injection (the dose was 3 mg/kg) or intragastrical administration (the dose was 10 mg/kg). Heparin sodium was used for anticoagulation. Analyze the concentration of the test compound in the blood sample.
Abrosia for 10-14 hours before oral administration of the test compounds and resume feeding 4 hours after oral administration of the test compounds.
The time points of blood sample collection were: intravenous injection: before administration and at 0.083 hour, 0.25 hour, 0.5 hour, 1 hour, 2 hour, 4 hour, 6 hour, 8 hour, 24 hour after administration; oral administration: before administration and at 0.25 hour, 0.5 hour, 1 hour, 2 hour, 4 hour, 6 hour, 8 hour, 24 hour after administration. Blood samples were collected through jugular vein puncture. About 0.25 mL blood was collected for each sample. Heparin sodium was used for anticoagulation and the samples were placed on ice after collection. Blood samples were placed on ice after collection, and plasma was separated by centrifugation (centrifugation condition: 8000 rpm, 6 min, 2-8° C.). The collected plasma was stored at −80° C. before analysis.
50 μL plasma sample was added into a 1.5 mL centrifugal tube, and 250 μL internal standard solution (the same volume of methanol was added to blank sample instead of internal standard) was added to the sample. The sample was mixed in a whirlpool and centrifuged for 5 minutes at 14000 rpm. The supernatant of 200 μL was added to 96-well plate for LC-MS/MS analysis.
The pharmacokinetic parameters of the test compounds were calculated using the non-compartment model of WinNonlin v5.2, a software for pharmacokinetic calculation, based on the data of plasma concentration.

The mark [2] stands for this setting: po, intragastrical administration 10 mg/kg.
Setting [3] is: po, intragastrical administration 10 mg/kg, read-out: AUC(po).
[4] abbreviates: po, intragastrical administration 10 mg/kg, read-out: T1/2(po) (converted).
[5] abbreviates: intravenous injection 3 mg/kg, read-out: AUC(iv).
[6] abbreviates: intravenous injection 3 mg/kg, read-out: T1/2 (IV) (converted).

T2 sequence (Q07343 whole entry): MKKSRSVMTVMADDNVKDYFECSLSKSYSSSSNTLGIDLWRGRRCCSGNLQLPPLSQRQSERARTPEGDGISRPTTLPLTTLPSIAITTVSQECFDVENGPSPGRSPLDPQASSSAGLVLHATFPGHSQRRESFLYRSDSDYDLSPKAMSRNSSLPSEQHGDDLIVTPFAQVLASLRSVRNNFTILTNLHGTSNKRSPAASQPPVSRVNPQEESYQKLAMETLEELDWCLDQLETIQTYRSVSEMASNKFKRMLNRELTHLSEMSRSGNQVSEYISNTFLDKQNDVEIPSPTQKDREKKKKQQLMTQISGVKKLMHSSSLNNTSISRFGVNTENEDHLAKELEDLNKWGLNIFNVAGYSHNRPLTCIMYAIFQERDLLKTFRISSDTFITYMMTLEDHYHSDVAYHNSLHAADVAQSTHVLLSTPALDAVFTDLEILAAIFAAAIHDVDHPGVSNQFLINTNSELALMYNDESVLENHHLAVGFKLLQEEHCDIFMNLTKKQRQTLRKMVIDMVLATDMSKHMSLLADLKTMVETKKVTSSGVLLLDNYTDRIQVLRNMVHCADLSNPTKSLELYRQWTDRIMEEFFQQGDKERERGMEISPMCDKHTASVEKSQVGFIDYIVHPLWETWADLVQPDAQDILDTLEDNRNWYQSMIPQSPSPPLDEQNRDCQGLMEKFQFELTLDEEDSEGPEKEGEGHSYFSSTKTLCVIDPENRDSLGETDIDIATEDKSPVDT
T1 sequence (P27815 1-647 isoform P27815-4): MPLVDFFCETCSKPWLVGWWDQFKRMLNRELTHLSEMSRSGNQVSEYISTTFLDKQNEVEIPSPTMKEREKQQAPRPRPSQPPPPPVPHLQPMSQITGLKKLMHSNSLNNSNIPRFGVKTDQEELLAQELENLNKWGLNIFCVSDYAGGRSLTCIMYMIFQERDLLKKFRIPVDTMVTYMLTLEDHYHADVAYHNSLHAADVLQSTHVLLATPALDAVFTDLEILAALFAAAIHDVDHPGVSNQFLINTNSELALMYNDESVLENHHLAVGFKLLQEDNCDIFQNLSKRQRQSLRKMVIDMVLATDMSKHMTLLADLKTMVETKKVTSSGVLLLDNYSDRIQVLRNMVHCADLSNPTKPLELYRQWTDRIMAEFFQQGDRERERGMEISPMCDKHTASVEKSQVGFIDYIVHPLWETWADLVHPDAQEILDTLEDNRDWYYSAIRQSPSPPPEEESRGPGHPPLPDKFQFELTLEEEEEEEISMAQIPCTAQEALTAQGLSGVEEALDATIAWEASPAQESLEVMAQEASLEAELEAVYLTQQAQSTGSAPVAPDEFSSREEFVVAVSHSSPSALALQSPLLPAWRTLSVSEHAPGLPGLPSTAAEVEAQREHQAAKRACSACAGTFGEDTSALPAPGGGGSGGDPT

As a reminder, the IC50 is the point on the concentration scale where inhibition reaches its midpoint. Lower therefore signals greater potency in that assay. As a reminder, the Tmax is the time from dosing to the highest level. By AUC is commonly meant the area under the concentration-time curve, a measure of exposure. In the case of `CCOc1nc([C@@H](CS(C)(=O)=O)N2C(=O)c3c(F)ccc(NC(C)=O)c3C2=O)ccc1OC` [Compound 705, (S)—N-(2-(1-(6-ethoxy-5-methoxypyridin-2-yl)-2-(methylsulfonyl)ethyl)-7-fluoro-1,3-dioxoisoindolin-4-yl)acetamide], the IC50 against PDE4A1A was found to be 0.58 nM; on PDE4B1, 1.6 nM; against PDE4D3, 0.53 nM. The Tmax in series [1] (setting [2]) was determined as 30 min. The AUC in series [1] (setting [3]) stood at 3590 ng·h/mL; in series [1] (setting [5]) it was 1340 ng·h/mL. The values for the half-life in series [1] (setting [4]) and in series [1] (setting [6]) were 555 min and 55.2 min, respectively. Besides, the F in series [1] is listed as 80.2.
With `[2H]C([2H])([2H])Oc1ccc([C@@H](CS(C)(=O)=O)N2C(=O)c3cc(F)cc(NC(C)=O)c3C2=O)cc1OCC` [Compound 203, (S)—N-(2-(l-(3-ethoxy-4-d3-methoxyphenyl)-2-(methylsulfonyl)ethyl)-6-fluoro-1,3-dioxoisoindolin-4-yl)acetamide], the figures for the IC50 at PDE4A1A, against PDE4B1 and at PDE4D3 were 22 nM, 31 nM and 18 nM, respectively. For the same compound, the time to peak (Tmax) in series [1] (setting [2]) was found to be 30 min. In addition, the AUC in series [1] (setting [3]) was 250 ng·h/mL; in series [1] (setting [5]) it was 1010 ng·h/mL. Besides, the half-life in series [1] (setting [4]) was 52.2 min; in series [1] (setting [6]), 57 min. Further, in series [1], the F came out at 7.4.
Take `CCOc1cc([C@@H](CS(C)(=O)=O)N2C(=O)c3cccc(NC(C)=O)c3C2=O)ccc1OC` [Reference compound 2, reference compound]: in series [1] (setting [2]), the Tmax amounted to 60 min. Also, the exposure (AUC) in series [1] (setting [3]) was found to be 785 ng·h/mL; in series [1] (setting [5]) it was 1050 ng·h/mL. Also, the results for the half-life in series [1] (setting [4]) and in series [1] (setting [6]) were 56.4 min and 28.2 min, respectively. The same compound registered a F in series [1] of 22.5.
Turning to `CCOc1nc([C@@H](CS(C)(=O)=O)N2C(=O)c3cccc(NC(C)=O)c3C2=O)ccc1OC` [Compound 702, (S)—N-(2-(1-(6-ethoxy-5-methoxypyridin-2-yl)-2-(methylsulfonyl)ethyl)-1,3-dioxoisoindolin-4-yl)acetamide], the half-maximal inhibitory concentration (IC50) at PDE4A1A is 2.2 nM; at PDE4B1 it was 4.7 nM; at PDE4D3 it was 4 nM. Besides, the Tmax in series [1] (setting [2]) came to 40.2 min. For the same compound, the values for the AUC in series [1] (setting [3]) and in series [1] (setting [5]) were 1050 ng·h/mL and 1330 ng·h/mL, respectively. Moreover, the half-life in series [1] (setting [4]) was 392 min; in series [1] (setting [6]), 22.8 min. In series [1], the F is reported as 15.5.
As to `[2H]C([2H])([2H])Oc1ccc([C@@H](CS(C)(=O)=O)N2C(=O)c3c(F)ccc(NC(C)=O)c3C2=O)cc1OC([2H])([2H])C([2H])([2H])[2H]` [Compound 107, (S)—N-(2-(1-(3-d5-ethoxy-4-d3-methoxyphenyl)-2-(methylsulfonyl)ethyl)-7-fluoro-1,3-dioxoisoindolin-4-yl)acetamide], the results for the half-maximal inhibitory concentration (IC50) against PDE4A1A, against PDE4B1 and on PDE4D3 were 8.3 nM, 12 nM and 4.6 nM, respectively.
For `CCOc1nc([C@H](CS(C)(=O)=O)N2C(=O)c3cc(F)cc(NC(C)=O)c3C2=O)ccc1OC` [Compound 709, (R)—N-(2-(1-(6-ethoxy-5-methoxypyridin-2-yl)-2-(methylsulfonyl)ethyl)-6-fluoro-1,3-dioxoisoindolin-4-yl)acetamide], in that order: 17 nM, 32 nM and 11 nM.
Regarding `CCOc1nc([C@@H](CS(C)(=O)=O)N2C(=O)c3cc(F)cc(NC(C)=O)c3C2=O)ccc1OC` [Compound 708, (S)—N-(2-(1-(6-ethoxy-5-methoxypyridin-2-yl)-2-(methylsulfonyl)ethyl)-6-fluoro-1,3-dioxoisoindolin-4-yl)acetamide], the values for the half-inhibitory concentration (IC50) at PDE4A1A, against PDE4B1 and at PDE4D3 were 3.1 nM, 5.1 nM and 1.6 nM, respectively. Also, the Tmax in series [1] (setting [2]) turned out to be 40.2 min. Further, the values for the AUC in series [1] (setting [3]) and in series [1] (setting [5]) were 51 ng·h/mL and 945 ng·h/mL, respectively. Further, the half-life is 253 min in series [1] (setting [4]) and 32.4 min in series [1] (setting [6]). The compound also registered a F in series [1] of 1.62.
As to `CCOc1nc([C@@H](CS(C)(=O)=O)N2C(=O)c3c(C#N)ccc(NC(C)=O)c3C2=O)ccc1OC` [Compound 732, (S)—N-(7-cyano-2-(1-(6-ethoxy-5-methoxypyridin-2-yl)-2-(methylsulfonyl)ethyl)-1,3-dioxoisoindolin-4-yl)acetamide], the IC50 was 0.8 nM on PDE4A1A, 2.4 nM on PDE4B1 and 1.1 nM on PDE4D3.
`[2H]C([2H])([2H])Oc1ccc([C@@H](CS(C)(=O)=O)N2C(=O)c3cccc(NC(=O)C4CC4)c3C2=O)cc1OCC` [Compound 120, (S)—N-(2-(1-(3-ethoxy-4-d3-methoxyphenyl)-2-(methylsulfonyl)ethyl)-1,3-dioxoisoindolin-4-yl)cyclopropanecarboxamide]: the IC50 against PDE4A1A came out at 7.6 nM; against PDE4B1, 11 nM; on PDE4D3, 4.9 nM.
Consider `[2H]C([2H])([2H])Oc1ccc([C@@H](CS(C)(=O)=O)N2C(=O)c3c(F)ccc(NC(C)=O)c3C2=O)cc1OCC` [Compound 103, (S)—N-(2-(1-(3-ethoxy-4-d3-methoxyphenyl)-2-(methylsulfonyl)ethyl)-7-fluoro-1,3-dioxoisoindolin-4-yl)acetamide], for which the IC50 against PDE4A1A amounted to 7.25 nM; against PDE4B1 it was 12.8 nM; against PDE4D3, 3.7 nM. Also, in series [1] (setting [2]), the Tmax came to 120 min. Besides, the area under the curve (AUC) stood at 4120 ng·h/mL in series [1] (setting [3]) and 1260 ng·h/mL in series [1] (setting [5]). The half-life is 230 min in series [1] (setting [4]) and 63 min in series [1] (setting [6]). Besides, the F in series [1] was 98.2.
For `CCOc1cc(C(CS(C)(=O)=O)N2C(=O)c3ccnc(NC(C)=O)c3C2=O)ccc1OC` (stereo not drawn) [Compound 401, N-(2-(1-(3-ethoxy-4-methoxyphenyl)-2-(methylsulfonyl)ethyl)-1,3-dioxo-2,3-dihydro-1H-pyrrolo[3,4-c]pyridin-4-yl)acetamide], the values for the IC50 on PDE4A1A, at PDE4B1 and against PDE4D3 were 182 nM, 211 nM and 110 nM, respectively.
On the same counts, the results for `[2H]C([2H])([2H])Oc1ccc([C@H](CS(C)(=O)=O)N2C(=O)c3cc(F)cc(NC(C)=O)c3C2=O)nc1OCC` [Compound 725, (R)—N-(2-(1-(6-ethoxy-5-d3-methoxypyridin-2-yl)-2-(methylsulfonyl)ethyl)-6-fluoro-1,3-dioxoisoindolin-4-yl)acetamide] are 32.1 nM, 93 nM and 33.5 nM.
On to `[2H]C([2H])([2H])Oc1ccc([C@H](CS(C)(=O)=O)N2C(=O)c3cccc(NC(C)=O)c3C2=O)nc1OCC` [Compound 712, (R)—N-(2-(1-(6-ethoxy-5-d3-methoxypyridin-2-yl)-2-(methylsulfonyl)ethyl)-1,3-dioxoisoindolin-4-yl)acetamide], for which the 50% inhibitory concentration (IC50) against PDE4A1A was determined as 32.6 nM; against PDE4B1 it was 82.8 nM; against PDE4D3, 29 nM.
